Data as given in patent publication US20240067632A1, “WEE1 Degrading Compounds and Uses Thereof” (Bristol-Myers Squibb Company, priority 2022, published 2024).
Like-named read-outs stand apart in the source and are kept apart here.

Tests used:
WEE1 = target: T1, WEE1 (Homo sapiens, UniProt P30291+Q96SW2); assay: WEE1-ePL degradation assay (LentiX-WEE1-ePL-GSPT1-ND cells, InCELL Hunter luminescence, 4 h); type: cell-based; details: 293T-LentiX WEE1-ePL cells; for DC50: read-out: 293T-LentiX WEE1-ePL Degradation 4 hr (EC50)
T1 construct: C-terminal ePL-tagged (DiscoverX, Fremont, CA) full-length WEE1 expression construct; expressed in transfected cells; host or cells: LentiX-HEK293T (Invitrogen), lentiviral transduction; co-expressing GSPT1-GN (G576N, lacking the first 158 amino acids)
In short: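 HEK293T cells stably expressing C-terminal ePL-tagged full-length WEE1, 2500 cells/well, treated 4 h at 37° C with a 10-point 3-fold series from 1 or 10 uM. Remaining WEE1-ePL read by InCELL Hunter luminescence after 30 min. EC50 came from a four-parameter logistic fit, with Ymax set from DMSO control.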

MKN45 cells = assay: MKN45 cell proliferation assay (Cell-Titer-Glo, 120 h); type: cell-based; details: for EC50: Homo sapiens, MKN-45, 120 h, Cell-Titer-Glo, read-out: MKN45 Cell Prolif. 120 hr (EC50); for MKN45 Cell Prolif. 120 hr (Ymin-Obs): minimal percent of DMSO control observed in the concentrations tested
In short: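 Growth inhibition was read as blank-corrected Cell-Titer-Glo luminescence expressed as percent DMSO control after 120 h at 37 C, 400 cells/well. Compounds tested in triplicate as 10-point half-log series from 1 or 10 uM, 0.1% DMSO; four-parameter fit gave EC50, and lowest observed percent control was reported as Ymin-obs.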

[1] = lower limit of the fit (0 = luciferase inhibitor, Ymax = DMSO control)
[2] = lower limit of the fit (Ymin=0 luciferase inhibitor, Ymax DMSO control)

CC(C)(O)c1ccc2cc(CN3CC[C@H](Oc4ccc5c(c4)CN(C4CCC(=O)NC4=O)C5=O)C3)ncc2c1 (stereo partly drawn) [3-(5-{[(3S)-1-{[7-(2-hydroxypropan-2-yl)isoquinolin-3-yl]methyl}pyrrolidin-3-yl]oxy}-1-oxo-2,3-dihydro-1H-isoindol-2-yl)piperidine-2,6-dione]
293T-LentiX WEE1-ePL Degradation 4 hr (Ymin) (WEE1; [1]): 31 | DC50 (WEE1): 5.41 nM | EC50 (MKN45 cells; growth inhibition): 16.2 nM | MKN45 Cell Prolif. 120 hr (Ymin-Obs) (MKN45 cells): 7.18

COC(C)(C)c1ccc2cc(CN3CC[C@H](Oc4ccc5c(c4)CN(C4CCC(=O)NC4=O)C5=O)C3)ncc2c1 (stereo partly drawn) [3-(5-{[(3S)-1-{[7-(2-methoxypropan-2-yl)isoquinolin-3-yl]methyl}pyrrolidin-3-yl]oxy}-1-oxo-2,3-dihydro-1H-isoindol-2-yl)piperidine-2,6-dione]
293T-LentiX WEE1-ePL Degradation 4 hr (Ymin) (WEE1; [1]): 32 | DC50 (WEE1): 1.21 nM | EC50 (MKN45 cells; growth inhibition): 6.04 nM | MKN45 Cell Prolif. 120 hr (Ymin-Obs) (MKN45 cells): 11.51

COCc1ccc2cc(CN3CC[C@H](Oc4ccc5c(c4)CN(C4CCC(=O)NC4=O)C5=O)C3)ncc2c1 (stereo partly drawn) [3-(5-{[(3S)-1-{[7-(methoxymethyl)isoquinolin-3-yl]methyl}pyrrolidin-3-yl]oxy}-1-oxo-2,3-dihydro-1H-isoindol-2-yl)piperidine-2,6-dione]
293T-LentiX WEE1-ePL Degradation 4 hr (Ymin) (WEE1; [1]): 30 | DC50 (WEE1): 1.42 nM | EC50 (MKN45 cells; growth inhibition): 2.85 nM | MKN45 Cell Prolif. 120 hr (Ymin-Obs) (MKN45 cells): 8.95

CNc1ccc2cc(CN3CC[C@H](Oc4ccc5c(c4)CN(C4CCC(=O)NC4=O)C5=O)C3)ncc2c1 (stereo partly drawn) [3-(5-{[(3S)-1-{[7-(methylamino)isoquinolin-3-yl]methyl}pyrrolidin-3-yl]oxy}-1-oxo-2,3-dihydro-1H-isoindol-2-yl)piperidine-2,6-dione]
293T-LentiX WEE1-ePL Degradation 4 hr (Ymin) (WEE1; [1]): 32 | DC50 (WEE1): 9.01 nM | EC50 (MKN45 cells; growth inhibition): 42.1 nM | MKN45 Cell Prolif. 120 hr (Ymin-Obs) (MKN45 cells): 12.46

O=C1CCC(N2Cc3cc(O[C@H]4CCN(Cc5cc6ccc(N7CCOCC7)cc6cn5)C4)ccc3C2=O)C(=O)N1 (stereo partly drawn) [3-(5-{[(3S)-1-{[7-(morpholin-4-yl)isoquinolin-3-yl]methyl}pyrrolidin-3-yl]oxy}-1-oxo-2,3-dihydro-1H-isoindol-2-yl)piperidine-2,6-dione]
293T-LentiX WEE1-ePL Degradation 4 hr (Ymin) (WEE1; [1]): 36 | DC50 (WEE1): 3.82 nM | EC50 (MKN45 cells; growth inhibition): 3.17 nM | MKN45 Cell Prolif. 120 hr (Ymin-Obs) (MKN45 cells): 6.72

O=C1CCC(N2Cc3cc(O[C@H]4CCN(Cc5cc6ccc(C7CCOCC7)cc6cn5)C4)ccc3C2=O)C(=O)N1 (stereo partly drawn) [3-(5-{[(3S)-1-{[7-(oxan-4-yl)isoquinolin-3-yl]methyl}pyrrolidin-3-yl]oxy}-1-oxo-2,3-dihydro-1H-isoindol-2-yl)piperidine-2,6-dione]
293T-LentiX WEE1-ePL Degradation 4 hr (Ymin) (WEE1; [1]): 29.75 | DC50 (WEE1): 1.46 nM | EC50 (MKN45 cells; growth inhibition): 2.09 nM | MKN45 Cell Prolif. 120 hr (Ymin-Obs) (MKN45 cells): 8.822

O=C1CCC(N2Cc3cc(O[C@H]4CCN(Cc5cc(F)c6nc(C7CCOCC7)ccc6c5)C4)ccc3C2=O)C(=O)N1 (stereo partly drawn) [3-(5-{[(3S)-1-{[8-fluoro-2-(oxan-4-yl)quinolin-6-yl]methyl}pyrrolidin-3-yl]oxy}-1-oxo-2,3-dihydro-1H-isoindol-2-yl)piperidine-2,6-dione]
293T-LentiX WEE1-ePL Degradation 4 hr (Ymin) (WEE1; [1]): 28 | DC50 (WEE1): 1.24 nM | EC50 (MKN45 cells; growth inhibition): 1.09 nM | MKN45 Cell Prolif. 120 hr (Ymin-Obs) (MKN45 cells): 7.098

C[C@@H]1CN(Cc2ccc3nc([C@@H]4CCOC(C)(C)C4)ccc3c2)C[C@H]1Oc1ccc2c(c1)CN(C1CCC(=O)NC1=O)C2=O (stereo partly drawn) [3-(5-{[(3S,4R)-1-({2-[(4R)-2,2-dimethyloxan-4-yl]quinolin-6-yl}methyl)-4-methylpyrrolidin-3-yl]oxy}-1-oxo-2,3-dihydro-1H-isoindol-2-yl) piperidine-2,6-dione]
293T-LentiX WEE1-ePL Degradation 4 hr (Ymin) (WEE1; [1]): 27.43 | DC50 (WEE1): 4.25 nM | EC50 (MKN45 cells; growth inhibition): 4.65 nM | MKN45 Cell Prolif. 120 hr (Ymin-Obs) (MKN45 cells): 9.178

C[C@@H]1CN(Cc2ccc3nc([C@H]4CCOC(C)(C)C4)ccc3c2)C[C@H]1Oc1ccc2c(c1)CN(C1CCC(=O)NC1=O)C2=O (stereo partly drawn) [3-(5-{[(3S,4R)-1-({2-[(4S)-2,2-dimethyloxan-4-yl]quinolin-6-yl}methyl)-4-methylpyrrolidin-3-yl]oxy}-1-oxo-2,3-dihydro-1H-isoindol-2-yl)piperidine-2,6-dione]
293T-LentiX WEE1-ePL Degradation 4 hr (Ymin) (WEE1; [1]): 24.37 | DC50 (WEE1): 1.94 nM | EC50 (MKN45 cells; growth inhibition): 0.918 nM | MKN45 Cell Prolif. 120 hr (Ymin-Obs) (MKN45 cells): 8.183

C[C@@H]1CN(Cc2cc(F)c3nc([C@H]4CCOC4)ccc3c2)C[C@H]1Oc1ccc2c(c1)CN(C1CCC(=O)NC1=O)C2=O (stereo partly drawn) [3-(5-{[(3S,4R)-1-({8-fluoro-2-[(3R)-oxolan-3-yl]quinolin-6-yl}methyl)-4-methylpyrrolidin-3-yl]oxy}-1-oxo-2,3-dihydro-1H-isoindol-2-yl)piperidine-2,6-dione]
293T-LentiX WEE1-ePL Degradation 4 hr (Ymin) (WEE1; [2]): 30.53 | DC50 (WEE1): 1.56 nM | EC50 (MKN45 cells): 1.3 nM | MKN45 Cell Prolif. 120 hr (Ymin-Obs) (MKN45 cells): 8.038

O=C1CCC(N2Cc3cc(O[C@@H]4CN(Cc5ccc6nc(C7CCOCC7)ccc6c5)C[C@H]4C(F)(F)F)ccc3C2=O)C(=O)N1 (stereo partly drawn) [3-(5-{[(3S,4R)-1-{[2-(oxan-4-yl)quinolin-6-yl]methyl}-4-(trifluoromethyl)pyrrolidin-3-yl]oxy}-1-oxo-2,3-dihydro-1H-isoindol-2-yl)piperidine-2,6-dione]
293T-LentiX WEE1-ePL Degradation 4 hr (Ymin) (WEE1; [2]): 35.15 | DC50 (WEE1): 13.1 nM | EC50 (MKN45 cells): 26.8 nM | MKN45 Cell Prolif. 120 hr (Ymin-Obs) (MKN45 cells): 28.55

C[C@@H]1CN(Cc2cc(F)c3nc(C4CCOCC4)ccc3c2)C[C@H]1Oc1ccc2c(c1)CN(C1CCC(=O)NC1=O)C2=O (stereo partly drawn) [3-(5-{[(3S,4R)-1-{[8-fluoro-2-(oxan-4-yl)quinolin-6-yl]methyl}-4-methylpyrrolidin-3-yl]oxy}-1-oxo-2,3-dihydro-1H-isoindol-2-yl)piperidine-2,6-dione]
293T-LentiX WEE1-ePL Degradation 4 hr (Ymin) (WEE1; [2]): 27.42 | DC50 (WEE1): 1.13 nM | EC50 (MKN45 cells): 1.49 nM | MKN45 Cell Prolif. 120 hr (Ymin-Obs) (MKN45 cells): 7.781

C[C@@H]1CN(Cc2ccc3nc([C@H]4CCOC4)ccc3c2)C[C@H]1Oc1ccc2c(c1)CN(C1CCC(=O)NC1=O)C2=O (stereo partly drawn) [3-(5-{[(3S,4R)-4-methyl-1-({2-[(3R)-oxolan-3-yl]quinolin-6-yl}methyl)pyrrolidin-3-yl]oxy}-1-oxo-2,3-dihydro-1H-isoindol-2-yl)piperidine-2,6-dione]
293T-LentiX WEE1-ePL Degradation 4 hr (Ymin) (WEE1; [2]): 33.41 | DC50 (WEE1): 1.41 nM | EC50 (MKN45 cells): 2.32 nM | MKN45 Cell Prolif. 120 hr (Ymin-Obs) (MKN45 cells): 10.26

C[C@@H]1CN(Cc2ccc3nc([C@@H]4CCOC4)ccc3c2)C[C@H]1Oc1ccc2c(c1)CN(C1CCC(=O)NC1=O)C2=O (stereo partly drawn) [3-(5-{[(3S,4R)-4-methyl-1-({2-[(3S)-oxolan-3-yl]quinolin-6-yl}methyl)pyrrolidin-3-yl]oxy}-1-oxo-2,3-dihydro-1H-isoindol-2-yl)piperidine-2,6-dione]
293T-LentiX WEE1-ePL Degradation 4 hr (Ymin) (WEE1; [2]): 33.96 | DC50 (WEE1): 1.95 nM | EC50 (MKN45 cells): 3.67 nM | MKN45 Cell Prolif. 120 hr (Ymin-Obs) (MKN45 cells): 10.01

Cc1ccc2cc(CN3C[C@@H](C)[C@H](Oc4ccc5c(c4)CN(C4CCC(=O)NC4=O)C5=O)C3)ccc2n1 (stereo partly drawn) [3-(5-{[(3S,4R)-4-methyl-1-[(2-methylquinolin-6-yl)methyl]pyrrolidin-3-yl]oxy}-1-oxo-2,3-dihydro-1H-isoindol-2-yl)piperidine-2,6-dione]
293T-LentiX WEE1-ePL Degradation 4 hr (Ymin) (WEE1; [1]): 33 | DC50 (WEE1): 3.1 nM | EC50 (MKN45 cells; growth inhibition): 17.5 nM | MKN45 Cell Prolif. 120 hr (Ymin-Obs) (MKN45 cells): 12.51

C[C@@H]1CN(Cc2ccc3nc(C4CCOCC4)ccc3c2)C[C@H]1Oc1ccc2c(c1)CN(C1CCC(=O)NC1=O)C2=O (stereo partly drawn) [3-(5-{[(3S,4R)-4-methyl-1-{[2-(oxan-4-yl)quinolin-6-yl]methyl}pyrrolidin-3-yl]oxy}-1-oxo-2,3-dihydro-1H-isoindol-2-yl)piperidine-2,6-dione]
293T-LentiX WEE1-ePL Degradation 4 hr (Ymin) (WEE1; [1]): 27.68 | DC50 (WEE1): 2.71 nM | EC50 (MKN45 cells; growth inhibition): 3.52 nM | MKN45 Cell Prolif. 120 hr (Ymin-Obs) (MKN45 cells): 9.683

COC[C@@H]1CN(Cc2ccc3nc(C4CCOCC4)ccc3c2)C[C@H]1Oc1ccc2c(c1)CN(C1CCC(=O)NC1=O)C2=O (stereo partly drawn) [3-(5-{[(3S,4S)-4-(methoxymethyl)-1-{[2-(oxan-4-yl)quinolin-6-yl]methyl}pyrrolidin-3-yl]oxy}-1-oxo-2,3-dihydro-1H-isoindol-2-yl)piperidine-2,6-dione]
293T-LentiX WEE1-ePL Degradation 4 hr (Ymin) (WEE1; [2]): 29.16 | DC50 (WEE1): 3.08 nM | EC50 (MKN45 cells): 1.89 nM | MKN45 Cell Prolif. 120 hr (Ymin-Obs) (MKN45 cells): 9.504

Cc1ccc2cc(CN3C[C@H](C)[C@H](Oc4ccc5c(c4)CN(C4CCC(=O)NC4=O)C5=O)C3)ccc2n1 (stereo partly drawn) [3-(5-{[(3S,4S)-4-methyl-1-[(2-methylquinolin-6-yl)methyl]pyrrolidin-3-yl]oxy}-1-oxo-2,3-dihydro-1H-isoindol-2-yl)piperidine-2,6-dione]
293T-LentiX WEE1-ePL Degradation 4 hr (Ymin) (WEE1; [1]): 88.5 | EC50 (MKN45 cells; growth inhibition): > 10000 nM | MKN45 Cell Prolif. 120 hr (Ymin-Obs) (MKN45 cells): 85.96

Cc1ccc2cc(CN3C[C@@H](Oc4ccc5c(c4)CN(C4CCC(=O)NC4=O)C5=O)C[C@H]3C)ccc2n1 (stereo partly drawn) [3-(5-{[(3S,5R)-5-methyl-1-[(2-methylquinolin-6-yl)methyl]pyrrolidin-3-yl]oxy}-1-oxo-2,3-dihydro-1H-isoindol-2-yl)piperidine-2,6-dione]
293T-LentiX WEE1-ePL Degradation 4 hr (Ymin) (WEE1; [1]): 88.5 | EC50 (MKN45 cells; growth inhibition): > 10000 nM | MKN45 Cell Prolif. 120 hr (Ymin-Obs) (MKN45 cells): 80.29
